# In article PMC3899525 (Cell, 2013):
# Target: T1, Gr21a/Gr63a heteromeric CO2 receptor (ab1C neuron) (Drosophila melanogaster, UniProt Q9VPT1+Q9VZL7)
# T1 sequence (Q9VPT1 1-447): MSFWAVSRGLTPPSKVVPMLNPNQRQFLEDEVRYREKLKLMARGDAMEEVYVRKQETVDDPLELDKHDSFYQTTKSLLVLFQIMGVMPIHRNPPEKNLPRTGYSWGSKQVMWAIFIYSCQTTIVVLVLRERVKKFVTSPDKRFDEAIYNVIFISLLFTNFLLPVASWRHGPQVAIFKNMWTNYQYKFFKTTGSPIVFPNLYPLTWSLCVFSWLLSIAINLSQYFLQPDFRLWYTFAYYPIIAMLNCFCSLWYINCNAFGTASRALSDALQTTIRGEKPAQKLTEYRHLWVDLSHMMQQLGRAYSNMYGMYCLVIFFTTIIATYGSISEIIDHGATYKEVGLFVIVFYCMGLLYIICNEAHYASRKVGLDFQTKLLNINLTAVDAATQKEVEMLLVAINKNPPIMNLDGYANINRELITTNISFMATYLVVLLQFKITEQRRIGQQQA
# T1 sequence (Q9VZL7 1-512): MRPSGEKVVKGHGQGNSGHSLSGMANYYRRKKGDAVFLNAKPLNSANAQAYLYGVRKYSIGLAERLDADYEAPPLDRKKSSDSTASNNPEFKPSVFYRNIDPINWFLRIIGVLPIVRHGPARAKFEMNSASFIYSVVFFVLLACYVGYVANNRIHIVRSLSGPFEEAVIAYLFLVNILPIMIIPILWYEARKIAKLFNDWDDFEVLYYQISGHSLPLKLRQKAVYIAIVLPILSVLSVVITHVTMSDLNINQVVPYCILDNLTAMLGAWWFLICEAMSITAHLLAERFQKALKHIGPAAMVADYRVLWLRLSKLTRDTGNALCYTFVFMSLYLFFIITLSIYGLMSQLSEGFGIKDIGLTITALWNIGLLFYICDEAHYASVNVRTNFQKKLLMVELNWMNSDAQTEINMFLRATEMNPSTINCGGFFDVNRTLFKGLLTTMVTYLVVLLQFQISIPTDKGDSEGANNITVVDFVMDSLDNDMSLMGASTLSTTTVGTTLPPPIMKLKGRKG
# Test: single-sensillum recording of ab1C neuron
# Format: cell-based
# Settings: inhibitor; orco mutant flies; native neuron in vivo
smiles,measurement,value
CCOC(=O)C(C)=O [ethyl pyruvate],single-sensillum recording of ab1C neuron,the cpA inhibitor ethyl pyruvate also effectively inhibited the ab1C neuron
